Measurements from patent EP1435941B1 (ARIZONA BOARD OF REGENTS on behalf of THE UNIVERSITY OF …, priority 2001, dated 2003).
Like-named read-outs stand apart in the source and are kept apart here.

Columns and labels:
mTOR = mTOR enzyme inhibition; assay type: biochemical; conditions: dose to cause 50% inhibition
Excerpt: (§1) Highlighted are the compounds being made for antitumor testing.

NCl cell panel [1] = experiment: Cytotoxicity, MTT assay; conditions: read-out: cytotoxieity NCl cell panel IC50
C57BL6 mice = experiment: Toxicity in mice, intraperitoneal daily for 4 days (MTD, differential blood counts, serum chemistry); assay type: in vivo; conditions: for Lymphocyte toxicity relative to wortmannin: percent decrease in lymphocyte counts at the MTD or highest dose tested; for Lymphocyte toxicity relative to wortmannin / Liver toxicity relative to wortmannie: wortmannin as 1.0; for Maximum tolerated dose: Ip qD x 4, MTD=>10% body weight loss, C57BL6 mice; for Liver toxicity relative to wortmannie: mean percent increase in serum ALT and AST at the MTD or highest dose tested
Excerpt: as §1

[2] = target: phesphatidylinositol-3-kinase; experiment: PI-3 kinase enzyme inhibition; assay type: biochemical; conditions: read-out: P1-3 kinase Inhibition IC50
Excerpt: as §1

NCl cell panel [3] = conditions: nci cell panel, 48 h
[4] = 2 day MTT assay, mean of 60 cell lines

SMILES | IC50 (mTOR) [µM] | IC50 (NCl cell panel [1]; [4]) [µM] | Lymphocyte toxicity relative to wortmannin (C57BL6 mice) | IC50 ([2]; dose to cause 50% inhibition) [µM] | IC50 (NCl cell panel [3]) [µM] | Maximum tolerated dose (C57BL6 mice) [mg/kg] | Liver toxicity relative to wortmannie (C57BL6 mice) | IC50 (NCl cell panel [1]; Homo sapiens, 60 cell, 48 h) [µM] | IC50 [2] [µM]
COC[C@H]1OC(=O)/C(=C/NCC(N)=O)C2=C(O)C(=O)C3=C([C@H](OC(C)=O)C[C@]4(C)C(=O)CC[C@@H]34)[C@]21C [DJM2-190] | > 3 | 33 | 0.6 | 10 | – | – | – | – | –
COC[C@H]1OC(=O)/C(=C/N2CCCC2)C2=C(O)C(=O)C3=C([C@H](OC(C)=O)C[C@]4(C)C(=O)CC[C@@H]34)[C@]21C [DJM2-167, Acetic acid 6-hydroxy-1α-methoxymethyl-10β,13β-dimethyl-3,7,17-trioxo-4-pyrrolidin-1-yl-methylene-1,3,4,7,10,11β,12,13,14α,15,16,17-dodecahydro-2-oxa-cyclopenta[a]phenanthren-11-yl] | – | – | – | 1.1 | 0.5 | – | – | – | –
COC[C@H]1OC(=O)/C(=C/NC(C)C(=O)O)C2=C(O)C(=O)C3=C([C@H](OC(C)=O)C[C@]4(C)C(=O)CC[C@@H]34)[C@]21C (stereo partly drawn) [DJM2-177] | 1.5 | 10.2 | 2.0 | 0.3 | – | 6 | 0.2 | – | –
COC[C@H]1OC(=O)C(=CN(C)Cc2ccccc2)C2=C(O)C(=O)C3=C([C@H](OC(C)=O)C[C@]4(C)C(=O)CC[C@@H]34)[C@]21C [DJM2-181, Acetic acid 4-[(benzylmethylamino)methylene]-6-hydroxy-1α-methoxymethyl-10β,13β-dimethyl-3,7,17-trioxo-1,3,4,7,10,11β,12,13, 14α,15,16,17-dodecahydro-2-oxa-cyclopenca[a]phenanthren-11-yl ester] | > 3 | – | – | 0.1 | 0.7 | > 18 | – | – | –
COC[C@H]1OC(=O)c2coc3c2[C@@]1(C)C1=C(C3=O)[C@@H]2CCC(=O)[C@@]2(C)C[C@H]1OC(C)=O [wortmannin, reference compound] | – | – | – | – | – | – | – | 8.9 | 0.3
COC[C@H]1OC(=O)/C(=C/SCc2ccccc2)C2=C(O)C(=O)C3=C([C@H](OC(C)=O)C[C@]4(C)C(=O)CC[C@@H]34)[C@]21C [DJM2-170] | > 3 | 7.1 | 1.1 | 1 | – | 9 | 1.7 | – | –
